Experimental data published in US8158792B2, “Spiropiperidines for use as tryptase inhibitors” (Janssen Pharmaceutica N.V., priority 2007, dated 2012).

Each compound was assayed against human lung tryptase (assay: β-Tryptase In-Vitro Enzyme Assay). Details: human lung tryptase 1 nM, substrate H-D-HHT-Ala-Arg-pNa 500 μM, pH 7.4, room temperature.
Assay type: biochemical
Procedure: The β-tryptase assay was conducted with human lung tryptase (Cortex Biochem #CP3033) in an aqueous buffer (10 mM Tris, 10 mM Hepes, 150 mM NaCl, 0.1% PEG 8000, pH 7.4) using the chromogenic substrate H-D-HHT-Ala-Arg-pNa. […] Percent inhibition was calculated by comparing the initial reaction velocity of samples without inhibitor to those with inhibitor. The initial reaction velocities were analyzed using Microsoft Excel.

Which IC50 does the source give for `NCc1ccc2c(c1)C1(CCN(C(=O)/C=C/c3ccc4c(c3)OCO4)CC1)CO2` [Cpd 187, (E)-1-(benzodioxol-5-ylethenyl)carbonyl-5′-aminomethyl-spiro[piperidine-4,3′-(2H)-benzo[b]furan]] here?
The IC50 was 790 nM.

`COc1cccc2c1OCC(C(=O)N1CCC3(CC1)COc1ccc(CN)cc13)=C2` [Cpd 197, 1-(8-methoxy-(2H)-chromen-3-yl)carbonyl-5′-aminomethyl-spiro[piperidine-4,3′-(2H)-benzo[b]furan]] was tested. Which IC50 did it give?
Its IC50 is 230 nM.

How did the IC50 turn out when `NCc1ccc2c(c1)C1(CCN(C(=O)c3ccc(Oc4cc(Cl)cc(Cl)c4)o3)CC1)CO2` [Cpd 149, 1-[5-(3,5-dichloro-phenoxy)-furan-2-yl]carbonyl-5′-aminomethyl-spiro[piperidine-4,3′-(2H)-benzo[b]furan]] was run?
Its IC50 is 110 nM.

With `COc1cccc(CC(=O)N2CCC3(CC2)COc2ccc(CN)cc23)c1` [Cpd 99, 1-(3-methoxy-benzyl)carbonyl-5′-aminomethyl-spiro[piperidine-4,3′-(2H)-benzo[b]furan]] as the compound, how does the IC50 read?
Its IC50 is 580 nM.

With `C[C@H]1CC[C@H](C(=O)N2CCC3(CC2)COc2ccc(CN)cc23)CC1` [Cpd 38, 1-(trans-4-methyl-cyclohexyl)carbonyl-5′-aminomethyl-spiro[piperidine-4,3′-(2H)-benzo[b]furan]] as the compound, how does the IC50 read?
Its IC50 is 650 nM.

How did the IC50 turn out when `NCc1ccc2c(c1)C1(CCN(C(=O)c3ccc(CCc4ccccc4)o3)CC1)CO2` [Cpd 107, 1-(5-phenethyl-furan-2-yl)carbonyl-5′-aminomethyl-spiro[piperidine-4,3′-(2H)-benzo[b]furan]] was run?
The IC50 was 82 nM.

How did the IC50 turn out when `Cc1cccc(CC(=O)N2CCC3(CC2)COc2ccc(CN)cc23)c1` [Cpd 89, 1-(3-methyl-benzyl)carbonyl-5′-aminomethyl-spiro[piperidine-4,3′-(2H)-benzo[b]furan]] was run?
The IC50 was 1400 nM.

How did the IC50 turn out when `Cc1ccc(C#Cc2ccc(C(=O)N3CCC4(CC3)COc3ccc(CN)cc34)o2)cc1` [Cpd 170, 1-[5-(4-methyl-phenylethynyl)-furan-2-yl]carbonyl-5′-aminomethyl-spiro[piperidine-4,3′-(2H)-benzo[b]furan]] was run?
The IC50 was 8.3 nM.

For `NCc1ccc2c(c1)C1(CCN(C(=O)c3ccc(C#Cc4ccccc4)o3)CC1)CN2CCP(=O)(O)O` [Cpd 326, 1-(5-phenylethynyl-furan-2-yl)carbonyl-5′-aminomethyl-spiro[piperidine-4,3′-(2H)-indole]-1′-(2-ethyl-phosphonic acid)], which IC50 is on record?
The IC50 was 470 nM.

With `CN(C)C(=N)c1ccc2c(c1)C1(CCN(C(=O)c3ccc(C#Cc4ccccc4)o3)CC1)CO2` [Cpd 313, 1-(5-phenylethynyl-furan-2-yl)carbonyl-5′-[dimethylamino(imino)methyl]-spiro[piperidine-4,3′-(2H)-benzo[b]furan]] as the compound, how does the IC50 read?
Its IC50 is 140 nM.

Which IC50 does the source give for `COc1ccc(CC(=O)N2CCC3(CC2)COc2ccc(CN)cc23)cc1OC` [Cpd 105, 1-(3,4-dimethoxy-benzyl)carbonyl-5′-aminomethyl-spiro[piperidine-4,3′-(2H)-benzo[b]furan]] here?
Its IC50 is 770 nM.

For `CCC(C)Sc1sc(C(=O)N2CCC3(CC2)COc2ccc(CN)cc23)c2c1C(=O)CC(C)(C)C2` (stereo not drawn) [Cpd 231, 1-(3-sec-butylthio-4-oxo-6,6-dimethyl-6,7-dihydro-5H-benzo[c]thien-1-yl)carbonyl-5′-aminomethyl-spiro[piperidine-4,3′-(2H)-benzo[b]furan]], which IC50 is on record?
Its IC50 is 91 nM.

With `NCc1ccc2c(c1)C1(CCN(C(=O)c3ccc(Cn4cnc5ccccc54)cc3)CC1)CO2` [Cpd 10, 1-(4-benzoimidazol-1-ylmethyl-phenyl)carbonyl-5′-aminomethyl-spiro[piperidine-4,3′-(2H)-benzo[b]furan]] as the compound, how does the IC50 read?
The IC50 was 3000 nM.

How did the IC50 turn out when `NCc1ccc2c(c1)C1(CCN(C(=O)/C=C/c3cccc(Cl)c3)CC1)CO2` [Cpd 164, (E)-1-(3-chloro-phenylethenyl)carbonyl-5′-aminomethyl-spiro[piperidine-4,3′-(2H)-benzo[b]furan]] was run?
Its IC50 is 140 nM.

For `NCc1ccc2c(c1)C1(CCN(C(=O)CC3c4ccccc4Oc4ccccc43)CC1)CO2` [Cpd 293, 1-9H-xanthen-9-ylmethylcarbonyl-5′-aminomethyl-spiro[piperidine-4,3′-(2H)-benzo[b]furan]], which IC50 is on record?
The IC50 was 1200 nM.

Which IC50 does the source give for `CSc1sc(C(=O)N2CCC3(CC2)COc2ccc(CN)cc23)c2c1CCCC2` [Cpd 218, 1-(3-methylthio-5,6,7-trihydro-4H-benzo[c]thien-1-yl)carbonyl-5′-aminomethyl-spiro[piperidine-4,3′-(2H)-benzo[b]furan]] here?
The IC50 was 8 nM.

For `NCc1ccc2c(c1)C1(CCN(C(=O)c3cc(-c4ccc(Cl)cc4)cs3)CC1)CO2` [Cpd 357, 1-[4-(4-chloro-phenyl)-thien-2-yl]carbonyl-5′-aminomethyl-spiro[piperidine-4,3′-(2H)-benzo[b]furan]], which IC50 is on record?
Its IC50 is 280 nM.

With `COc1ccccc1/C=C/C(=O)N1CCC2(CC1)COc1ccc(CN)cc12` [Cpd 194, (E)-1-(2-methoxy-phenylethenyl)carbonyl-5′-aminomethyl-spiro[piperidine-4,3′-(2H)-benzo[b]furan]] as the compound, how does the IC50 read?
Its IC50 is 150 nM.

For `O=CNCc1ccc2c(c1)C1(CCN(C(=O)c3ccc(C#Cc4ccccc4)o3)CC1)CO2` [Cpd 304, 1-(5-phenylethynyl-furan-2-yl)carbonyl-5′-formylaminomethyl-spiro[piperidine-4,3′-(2H)-benzo[b]furan]], which IC50 is on record?
The IC50 was 30 nM.

For `NCc1ccc2c(c1)C1(CCN(C(=O)/C=C/c3cccc(F)c3)CC1)CO2` [Cpd 161, (E)-1-(3-fluoro-phenylethenyl)carbonyl-5′-aminomethyl-spiro[piperidine-4,3′-(2H)-benzo[b]furan]], which IC50 is on record?
Its IC50 is 53 nM.

With `NCc1ccc2c(c1)C1(CCN(C(=O)/C=C/c3ccccc3Cl)CC1)CO2` [Cpd 186, (E)-1-(2-chloro-phenylethenyl)carbonyl-5′-aminomethyl-spiro[piperidine-4,3′-(2H)-benzo[b]furan]] as the compound, how does the IC50 read?
The IC50 was 53 nM.

With `NCc1ccc2c(c1)C1(CCN(C(=O)c3cc(C(N)=O)cc(-c4nc(-c5cccs5)no4)c3)CC1)CO2` [Cpd 284, 1-[3-(3-thien-2-yl-[1,2,4]oxadiazol-5-yl)-5-aminocarbonyl-phenyl]carbonyl-5′-aminomethyl-spiro[piperidine-4,3′-(2H)-benzo[b]furan]] as the compound, how does the IC50 read?
The IC50 was 4.6 nM.

Which IC50 does the source give for `NCc1ccc2c(c1)C1(CCN(C(=O)Cc3cccc(C(F)(F)F)c3)CC1)CO2` [Cpd 85, 1-(3-trifluoromethyl-benzyl)carbonyl-5′-aminomethyl-spiro[piperidine-4,3′-(2H)-benzo[b]furan]] here?
Its IC50 is 2700 nM.

With `NCc1ccc2c(c1)C1(CCN(C(=O)Cc3cccc(Oc4ccccc4F)c3)CC1)CO2` [Cpd 210, 1-[3-(2-fluoro-phenoxy)-benzyl]carbonyl-5′-aminomethyl-spiro[piperidine-4,3′-(2H)-benzo[b]furan]] as the compound, how does the IC50 read?
Its IC50 is 26 nM.

Which IC50 does the source give for `NCc1ccc2c(c1)C1(CCN(C(=O)c3ccc(C#Cc4ccccc4)o3)CC1)CN2C(=O)CS(=O)(=O)O` [Cpd 335, 1-(5-phenylethynyl-furan-2-yl)carbonyl-1′-(hydroxysulfonylmethyl)carbonyl-5′-aminomethyl-spiro[piperidine-4,3′-(2H)-indole]] here?
The IC50 was 20 nM.

Which IC50 does the source give for `NCc1ccc2c(c1)C1(CCN(C(=O)c3cc4c(s3)CCC4)CC1)CO2` [Cpd 246, 1-(5,6-dihydro-4H-cyclopenta[b]thien-2-yl)carbonyl-5′-aminomethyl-spiro[piperidine-4,3′-(2H)-benzo[b]furan]] here?
Its IC50 is 200 nM.

How did the IC50 turn out when `C[SH]1C=C(C(F)(F)F)C2=C1NN(C(=O)N1CCC3(CC1)COc1ccc(CN)cc13)C2` (stereo not drawn) [Cpd 276, 1-(4-trifluoromethyl-6-methyl-1H-thieno[2,3-c]pyrazol-2-yl)carbonyl-5′-aminomethyl-spiro[piperidine-4,3′-(2H)-benzo[b]furan]] was run?
The IC50 was 150 nM.

`NCc1ccc2c(c1)C1(CCN(C(=O)c3ccc(-c4cccc(C(F)(F)F)c4)cc3)CC1)CO2` [Cpd 15, 1-[4-(3-trifluoromethyl-phenyl)-phenyl]carbonyl-5′-aminomethyl-spiro[piperidine-4,3′-(2H)-benzo[b]furan]] was tested. Which IC50 did it give?
The IC50 was 5500 nM.

With `NCc1ccc2c(c1)C1(CCN(C(=O)Cc3ccc(F)c(F)c3)CC1)CO2` [Cpd 82, 1-(3,4-difluoro-benzyl)carbonyl-5′-aminomethyl-spiro[piperidine-4,3′-(2H)-benzo[b]furan]] as the compound, how does the IC50 read?
Its IC50 is 1300 nM.

How did the IC50 turn out when `NCc1ccc2c(c1)C1(CCN(C(=O)c3ccc(C#Cc4cccc5ccccc45)o3)CC1)CO2` [Cpd 177, 1-(5-naphthalen-1-ylethynyl-furan-2-yl)carbonyl-5′-aminomethyl-spiro[piperidine-4,3′-(2H)-benzo[b]furan]] was run?
The IC50 was 26 nM.

Which IC50 does the source give for `NCc1ccc2c(c1)C1(CCN(C(=O)c3ccc(-c4ccccc4)o3)CC1)CO2` [Cpd 130, 1-(5-phenyl-furan-2-yl)carbonyl-5′-aminomethyl-spiro[piperidine-4,3′-(2H)-benzo[b]furan]] here?
Its IC50 is 28 nM.

How did the IC50 turn out when `NCc1ccc2c(c1)C1(CCN(C(=O)/C=C/c3ccsc3)CC1)CO2` [Cpd 255, (E)-1-(thien-3-ylethenyl)carbonyl-5′-aminomethyl-spiro[piperidine-4,3′-(2H)-benzo[b]furan]] was run?
The IC50 was 580 nM.

With `Cc1cc(C(=O)N2CCC3(CC2)COc2ccc(CN)cc23)ccc1Cl` [Cpd 25, 1-(3-methyl-4-chloro-phenyl)carbonyl-5′-aminomethyl-spiro[piperidine-4,3′-(2H)-benzo[b]furan]] as the compound, how does the IC50 read?
The IC50 was 140 nM.

For `NCc1ccc2c(c1)C1(CCN(C(=O)c3ccc(Cn4cc(Cl)cn4)o3)CC1)CO2` [Cpd 145, 1-[5-(4-chloro-pyrazol-1-ylmethyl)-furan-2-yl]carbonyl-5′-aminomethyl-spiro[piperidine-4,3′-(2H)-benzo[b]furan]], which IC50 is on record?
The IC50 was 340 nM.

Which IC50 does the source give for `N=C(NO)c1ccc2c(c1)C1(CCN(C(=O)c3ccc(C#Cc4ccccc4)o3)CC1)CO2` [Cpd 306, 1-(5-phenylethynyl-furan-2-yl)carbonyl-5′-[hydroxyamino(imino)methyl]-spiro[piperidine-4,3′-(2H)-benzo[b]furan]] here?
Its IC50 is 71 nM.

`Cc1ccc(-c2ccc(C(=O)N3CCC4(CC3)COc3ccc(CN)cc34)o2)cc1` [Cpd 131, 1-[5-(4-methyl-phenyl)-furan-2-yl]carbonyl-5′-aminomethyl-spiro[piperidine-4,3′-(2H)-benzo[b]furan]] was tested. Which IC50 did it give?
Its IC50 is 72 nM.
